Laboratory results from article PMC7592813 (Oncology Research, 2014).
Where two headings read alike, the source gives them in different places.

Target: T1, recombinant ENOX2 (tNOX) (Homo sapiens, UniProt Q16206)
T1 sequence (Q16206 1-610): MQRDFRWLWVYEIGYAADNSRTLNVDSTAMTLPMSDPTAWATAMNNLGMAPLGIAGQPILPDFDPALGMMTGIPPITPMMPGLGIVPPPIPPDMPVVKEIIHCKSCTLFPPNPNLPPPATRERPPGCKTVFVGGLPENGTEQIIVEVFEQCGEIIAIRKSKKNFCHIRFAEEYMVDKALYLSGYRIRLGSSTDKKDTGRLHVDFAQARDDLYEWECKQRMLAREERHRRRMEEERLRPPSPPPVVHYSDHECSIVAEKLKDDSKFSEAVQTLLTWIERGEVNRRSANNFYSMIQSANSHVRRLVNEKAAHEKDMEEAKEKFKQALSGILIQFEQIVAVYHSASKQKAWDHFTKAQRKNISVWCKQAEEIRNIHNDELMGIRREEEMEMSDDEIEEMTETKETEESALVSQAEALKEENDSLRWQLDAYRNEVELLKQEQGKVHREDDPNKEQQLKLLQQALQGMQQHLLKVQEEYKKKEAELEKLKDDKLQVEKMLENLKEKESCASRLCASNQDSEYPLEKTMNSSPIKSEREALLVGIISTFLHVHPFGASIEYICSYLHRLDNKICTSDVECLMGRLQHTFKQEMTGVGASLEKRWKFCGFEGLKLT
Assay: NADH oxidation, A340
Type: biochemical

| EC50 (150 µM NADH, 25 mM Tris-MES pH 7.2, 100 µM GSH, 1 mM KCN, 37 °C, inhibition) | EC50 | Compound |
| --- | --- | --- |
| ~50 nM | – | 2H-1-benzopyran-7-0,1,3-(4-hydroxyphenyl) [ME-143] |
| – | 330 ± 153 nM | Oc1ccc(C2=Cc3ccc(O)cc3OC2)cc1 [phenoxodiol] |
